In one experiment the test system is TAG. Description: triacylglycerol accumulation inhibitor potency, dose response, cell-based, panel, Nile Red and DAPI fluorescence, H9c2 (AID 651630).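 Also: cells exposed to compound overnight before fixation and staining.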 Conditions: H9c2 cells, Nile Red TAG fluorescence, oleic acid.
A further experiment deals with DAPI. The experiment is described as above. Conditions: H9c2 cells, DAPI nuclear fluorescence (cytotoxicity counter-readout), oleic acid.

Activity calls are given as the source filed them.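 The calls were made as follows: active = lipid-stain IC50 at or below a set limit, with nuclear-stain toxicity IC50 at least five times higher; inactive = the rest.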

As a reminder, the IC50 is the concentration that inhibits the measured activity by half. As to `COc1cccc(-c2cc(C(=O)Nc3ccc(N(C)C(C)=O)cc3)c3cc(Br)ccc3n2)c1`, the IC50 is 12.3 µM in the experiment on TAG (mean of runs), 11.7 µM in the experiment with TAG (run 1) and 12.9 µM with TAG (run 2). Moreover, the IC50 cytotoxicity (DAPI nuclear signal decrease) in the experiment on DAPI (mean of runs) is > 25 µM (inactive); in the experiment with DAPI (run 1), above 25 µM; in the experiment with DAPI (run 2), above 25 µM.

For the molecule `CCC(C)(C)NC(=O)C(c1ccc(OC)cc1)N(CC1CCCO1)C(=O)CCC(=O)Nc1cc(C)on1` (stereo not drawn), the IC50 is 7.02 µM in the experiment on TAG (mean of runs), 8.17 µM in the experiment with TAG (run 1) and 5.88 µM in the experiment with TAG (run 2). Also, the IC50 cytotoxicity (DAPI nuclear signal decrease) with DAPI (mean of runs) is > 25 µM (inactive); with DAPI (run 1), above 25 µM; in the experiment with DAPI (run 2), above 25 µM.

For the molecule `CCOc1cc(N2CCOCC2)c(OCC)cc1NC(=O)CC12CC3CC(CC(C3)C1)C2`, the IC50 in the experiment with TAG (run 1) was 22.4 µM; in the experiment on TAG (run 2), above 25 µM. The IC50 cytotoxicity (DAPI nuclear signal decrease) is > 25 µM (inactive) in the experiment on DAPI (mean of runs), above 25 µM in the experiment with DAPI (run 1) and above 25 µM in the experiment with DAPI (run 2).

With `COc1cc2c(cc1OC)C(C)N(C(=O)c1cc3c(C)cc(C)cc3[nH]1)CC2` (stereo not drawn), the IC50 in the experiment on TAG (mean of runs) was 9.16 µM; in the experiment on TAG (run 1), 9.59 µM; with TAG (run 2) it was 8.73 µM. Besides, the IC50 cytotoxicity (DAPI nuclear signal decrease) with DAPI (mean of runs) was > 25 µM (inactive); with DAPI (run 1), above 25 µM; with DAPI (run 2), above 25 µM.

Take `COc1ccc(C#Cc2ccc3c(c2)O[C@@H](CN(C)C(=O)Nc2cccc(OC)c2)[C@H](C)CN([C@@H](C)CO)S3(=O)=O)cc1`: the IC50 is 8.47 µM with TAG (mean of runs), 7.39 µM in the experiment on TAG (run 1) and 9.55 µM with TAG (run 2). Also, the IC50 cytotoxicity (DAPI nuclear signal decrease) was > 25 µM (inactive) in the experiment on DAPI (mean of runs), above 25 µM in the experiment with DAPI (run 1) and above 25 µM with DAPI (run 2).

As for `COC(=O)C1=C(C)N(Cc2ccccc2)C(=NCC(C)C)N[C@H]1c1cccc(F)c1`, the IC50 was > 25 µM (inactive) in the experiment on TAG (mean of runs), above 25 µM with TAG (run 1) and above 25 µM in the experiment on TAG (run 2). In addition, the figures for the IC50 cytotoxicity (DAPI nuclear signal decrease) with DAPI (mean of runs), in the experiment on DAPI (run 1) and in the experiment with DAPI (run 2) were > 25 µM (inactive), above 25 µM and above 25 µM, respectively.

In the case of `Cc1cc(N2CCN(Cc3cn(C)nc3-c3ccccc3F)CC2)cc(C)n1`, the figures for the IC50 with TAG (mean of runs), with TAG (run 1) and with TAG (run 2) were 13.1 µM, 11.1 µM and 15.1 µM, respectively. Also, the IC50 cytotoxicity (DAPI nuclear signal decrease) was > 25 µM (inactive) in the experiment with DAPI (mean of runs), above 25 µM with DAPI (run 1) and above 25 µM in the experiment on DAPI (run 2).

As for `CCN(CC)CCNc1nc2cc(OC)c(OC)cc2c2nc(-c3ccccc3)nn12`, the IC50 was > 25 µM (inactive) with TAG (mean of runs), above 25 µM in the experiment on TAG (run 1) and above 25 µM in the experiment on TAG (run 2). For the same molecule, the IC50 cytotoxicity (DAPI nuclear signal decrease) in the experiment with DAPI (mean of runs) was > 25 µM (inactive); with DAPI (run 1) it was above 25 µM; in the experiment with DAPI (run 2), above 25 µM.

As for `Cc1cc(C(=O)COC(=O)c2ccc([N+](=O)[O-])o2)c(C)n1CC1CCCO1` (stereo not drawn), the results for the IC50 with TAG (mean of runs), with TAG (run 1) and with TAG (run 2) were 19.2 µM (inactive), 18.9 µM and 19.4 µM, respectively. The IC50 cytotoxicity (DAPI nuclear signal decrease) in the experiment with DAPI (run 1) is 16.4 µM; in the experiment with DAPI (run 2), above 25 µM.

`COc1cc(C2c3cc4c(cc3OC(C)(N3CCCC3)C2C)OCO4)cc(OC)c1OC` (stereo not drawn): the IC50 was 13.8 µM in the experiment with TAG (mean of runs), 10.4 µM with TAG (run 1) and 17.1 µM with TAG (run 2). In addition, the IC50 cytotoxicity (DAPI nuclear signal decrease) was > 25 µM (inactive) in the experiment with DAPI (mean of runs), above 25 µM in the experiment with DAPI (run 1) and above 25 µM in the experiment on DAPI (run 2).

Regarding `Cc1ccc(-c2nn(-c3ccccc3)cc2CSC(=N)N)cc1`, the IC50 with TAG (mean of runs) is 3.82 µM; in the experiment with TAG (run 1), 3.92 µM; in the experiment on TAG (run 2), 3.73 µM. Also, the IC50 cytotoxicity (DAPI nuclear signal decrease) in the experiment with DAPI (mean of runs) is 21 µM; in the experiment with DAPI (run 1), 21.1 µM; in the experiment on DAPI (run 2) it was 20.9 µM.

Regarding `O=C(C[C@H]1C[C@H](C(=O)N2CCOCC2)[C@@]2(CCC3CCCC3)c3[nH]c4cc(-c5ccco5)ccc4c3CCN2C1=O)NCC12CC3CC(CC(C3)C1)C2`, the IC50 was 3.68 µM in the experiment on TAG (mean of runs), 4.04 µM in the experiment on TAG (run 1) and 3.32 µM with TAG (run 2). The IC50 cytotoxicity (DAPI nuclear signal decrease) in the experiment with DAPI (run 1) and with DAPI (run 2) was above 25 µM in each case.

Regarding `CC(C)(C)c1ccc(/C=N/NC(=O)Cc2c[nH]c3ccccc23)cc1`, the IC50 in the experiment on TAG (mean of runs) is 20.5 µM (inactive); with TAG (run 1), 16.5 µM; in the experiment on TAG (run 2), 24.4 µM. Besides, the IC50 cytotoxicity (DAPI nuclear signal decrease) was > 25 µM (inactive) in the experiment on DAPI (mean of runs), above 25 µM in the experiment with DAPI (run 1) and above 25 µM in the experiment with DAPI (run 2).

As to `CNC(=O)c1ccc(-c2sc3nc(N4CCOCC4)c4c(c3c2N)CCCC4)o1`, the values for the IC50 with TAG (mean of runs), with TAG (run 1) and in the experiment on TAG (run 2) were 6.57 µM, 5.49 µM and 7.64 µM, respectively. Further, the IC50 cytotoxicity (DAPI nuclear signal decrease) in the experiment on DAPI (mean of runs) is > 25 µM (inactive); in the experiment with DAPI (run 1) it was above 25 µM; in the experiment on DAPI (run 2), above 25 µM.

`O=C(c1ccoc1)N1CCN(c2cc(-c3cccnc3)nc3cc(-c4cccc(Cl)c4)nn23)CC1`: the IC50 in the experiment with TAG (mean of runs) is 4.93 µM; in the experiment with TAG (run 1), 3.16 µM; in the experiment on TAG (run 2), 6.71 µM. Further, the IC50 cytotoxicity (DAPI nuclear signal decrease) in the experiment on DAPI (run 1) and in the experiment on DAPI (run 2) was above 25 µM each time.

With `CCOc1ccc(CCNC(=O)CN2CCN(Cc3ccccc3F)C2=O)cc1OCC`, the results for the IC50 with TAG (mean of runs), in the experiment with TAG (run 1) and in the experiment on TAG (run 2) were 3.01 µM, 2.44 µM and 3.57 µM, respectively. Also, the IC50 cytotoxicity (DAPI nuclear signal decrease) with DAPI (run 1) and in the experiment on DAPI (run 2) was above 25 µM each time.

In the case of `O=C(N/N=C/c1ccc(Cl)cc1)c1sccc1OCc1ccc(F)cc1`, the results for the IC50 with TAG (mean of runs), in the experiment with TAG (run 1) and in the experiment with TAG (run 2) were > 25 µM (inactive), above 25 µM and above 25 µM, respectively. Moreover, the results for the IC50 cytotoxicity (DAPI nuclear signal decrease) in the experiment on DAPI (mean of runs), in the experiment on DAPI (run 1) and with DAPI (run 2) were > 25 µM (inactive), above 25 µM and above 25 µM, respectively.

In the case of `C=CC[C@@H](CC(=O)N(CCO)Cc1ccccc1)C(=O)N[C@H](COC(=O)[C@@H](CC=C)CC(=O)OC(C)(C)C)C(C)(C)C`, the values for the IC50 with TAG (mean of runs), with TAG (run 1) and in the experiment with TAG (run 2) were 3.39 µM, 4.3 µM and 2.48 µM, respectively. The IC50 cytotoxicity (DAPI nuclear signal decrease) in the experiment with DAPI (run 1) and with DAPI (run 2) was above 25 µM throughout.

`COc1cc(OC)nc(Nc2nc(C(N)Cc3ccc(Cl)cc3)cs2)n1` (stereo not drawn): the IC50 in the experiment with TAG (run 1) is above 25 µM; in the experiment on TAG (run 2) it was 23.4 µM. The values for the IC50 cytotoxicity (DAPI nuclear signal decrease) in the experiment with DAPI (mean of runs), with DAPI (run 1) and in the experiment on DAPI (run 2) were > 25 µM (inactive), above 25 µM and above 25 µM, respectively.

Consider `CCN(C[C@H]1N[C@@](CC)(C(=O)OC)[C@H]2C(=O)N(Cc3ccccc3)C(=O)[C@@H]12)S(=O)(=O)c1ccc(C(C)(C)C)cc1`, for which the IC50 is 10 µM in the experiment with TAG (mean of runs), 10.5 µM in the experiment with TAG (run 1) and 9.54 µM in the experiment with TAG (run 2). The IC50 cytotoxicity (DAPI nuclear signal decrease) in the experiment with DAPI (mean of runs) is > 25 µM (inactive); with DAPI (run 1) it was above 25 µM; in the experiment on DAPI (run 2), above 25 µM.

As for `COc1cc(-c2cc3nc(NCCOc4ccccc4)ccn3n2)cc(OC)c1OC`, the IC50 in the experiment on TAG (mean of runs) was 18.9 µM (inactive); in the experiment on TAG (run 1), 16.7 µM; in the experiment on TAG (run 2), 21.2 µM. The IC50 cytotoxicity (DAPI nuclear signal decrease) in the experiment with DAPI (mean of runs) was > 25 µM (inactive); in the experiment on DAPI (run 1), above 25 µM; in the experiment on DAPI (run 2), above 25 µM.

Take `O=C(Nc1ccccc1N1CCCCC1)c1ncoc1-c1ccc(F)cc1`: the IC50 in the experiment on TAG (mean of runs) is > 25 µM (inactive); with TAG (run 1), above 25 µM; with TAG (run 2), above 25 µM. Moreover, the IC50 cytotoxicity (DAPI nuclear signal decrease) was > 25 µM (inactive) in the experiment with DAPI (mean of runs), above 25 µM in the experiment on DAPI (run 1) and above 25 µM with DAPI (run 2).

Turning to `O=C1c2ccccc2C(=O)c2c1ccc(C(=O)N1CCCCC1)c2NCCO`, the IC50 with TAG (mean of runs) is 3.42 µM; in the experiment on TAG (run 1) it was 3.47 µM; in the experiment on TAG (run 2), 3.38 µM. For the same molecule, the IC50 cytotoxicity (DAPI nuclear signal decrease) with DAPI (run 1) and in the experiment on DAPI (run 2) was above 25 µM in each case.

On to `CCOc1cc(C(=O)N/N=C/c2cn(-c3ccccc3)nc2-c2cc3ccccc3o2)cc(OCC)c1OCC`, for which the IC50 with TAG (mean of runs) is 10.2 µM; in the experiment with TAG (run 1) it was 9.28 µM; in the experiment on TAG (run 2), 11.2 µM. For the same molecule, the IC50 cytotoxicity (DAPI nuclear signal decrease) in the experiment with DAPI (mean of runs) is > 25 µM (inactive); in the experiment with DAPI (run 1), above 25 µM; with DAPI (run 2) it was above 25 µM.

Consider `COc1ccc(C2NCCc3c2[nH]c2ccccc32)cc1CSc1nc2ccccc2s1` (stereo not drawn), for which the IC50 with TAG (mean of runs) was > 25 µM (inactive); in the experiment on TAG (run 1) it was above 25 µM; in the experiment with TAG (run 2) it was above 25 µM. Also, the IC50 cytotoxicity (DAPI nuclear signal decrease) in the experiment on DAPI (run 1) was above 25 µM; in the experiment with DAPI (run 2) it was 24.6 µM.

In the case of `CCOc1ccccc1NC(=O)C1CCN(C(=O)NCc2ccccc2)CC1`, the values for the IC50 in the experiment with TAG (mean of runs), in the experiment with TAG (run 1) and in the experiment with TAG (run 2) were > 25 µM (inactive), above 25 µM and above 25 µM, respectively. Besides, the IC50 cytotoxicity (DAPI nuclear signal decrease) in the experiment with DAPI (mean of runs) is > 25 µM (inactive); in the experiment with DAPI (run 1), above 25 µM; with DAPI (run 2), above 25 µM.

Take `Cc1noc(C)c1-c1ccc2ncnc(NCC3CCCCN3C)c2c1` (stereo not drawn): the IC50 with TAG (mean of runs) is > 25 µM (inactive); with TAG (run 1) it was above 25 µM; in the experiment on TAG (run 2), above 25 µM. Also, the IC50 cytotoxicity (DAPI nuclear signal decrease) in the experiment with DAPI (mean of runs) is > 25 µM (inactive); in the experiment with DAPI (run 1), above 25 µM; in the experiment on DAPI (run 2), above 25 µM.

These data come from PubChem BioAssay AID651630 (Sanford-Burnham Center for Chemical Genomics, 2012).
